Data reported in patent US20200246465A1, “USE OF TRYPTOPHAN DERIVATIVES FOR PROTEIN FORMULATIONS” (Genentech, Inc., priority 2015, published 2020).
“And” between values parts separate entries of the source, which are not always exact repeats. Equal values may be shown once.

Columns and labels:
[1] = AAPH oxidation stress of NAT in formulation buffer, RP-HPLC at 240 nm; type: physicochemical; conditions: for % NAT degradation ± 1SD: AAPH stress (1.0 mM AAPH, 40° C. 16 hours)
Method: AAPH (Calbio Chem, 99.8%) was used to model oxidative degradation by alkyl peroxides. Histidine and non-histidine buffers at pH 5.5 containing 0.3 mM NAT ±5 mM L-Met pH 5.5 were treated with an aqueous AAPH solution to a final concentration of 1.0 mM AAPH. An equivalent volume of Milli-Q H2O was added to control samples. Samples were incubated at 40° C. for 16 hours. Oxidation was quenched by the addition of L-Met to a final concentration of 20 mM. After the addition of the quenching solution, the final NAT concentration was 0.2 mM. NAT and NAT degradants were separated on an Agilent 1200 series HPLC or Waters H Class UPLC using an Agilent ZORBAX SB-C18 3.5 μm, 4.6×75 mm reverse phase column. Column temperature was held at 30±0.8° C. by a thermostat controller. The gradients used for HPLC and UPLC are listed in Tables 5 and 6, respectively (note: the shorter gradient on the UPLC was designed to accommodate earlier retention times and the column re-equilibration period was elongated due to the larger range of system pressure at a flow rate of 1.0 ml/min). NAT degradation products were detected at 240 nm. The standard bandwidth setting (8 nm for Agilent 1200 HPLC, 4.8 nm for Waters H-Class) was used for analysis on each instrument. The autosampler was maintained at 5±3° C. 10 nmol of NAT and/or NAT degradants (50 μl for most samples) was injected on to the column for analysis. The chromatograms were processed using Dionex Chromeleon software. Protein-containing samples were diluted in guanidine and the proteins removed via ultra-filtration (Amicon spin filters with a 30 kDa molecular weight cut-off). […] Using the final sample preparation conditions, recovery of NAT was 94-99% for three tested antibody/antibody derivatives and recovery of NAT degradants was 98-100% (data not shown). […] Total NAT degradation for each sample was calculated by comparing NAT peak area to the control sample for each stress model (Table 7). NAT degradation ranged from 3% (thermal stress, non-His buffer) to 83% (ICH light stress, His buffer). The impact of low concentrations of protein on AAPH-induced NAT degradation was also analyzed. Two antibodies (protein1 and protein2) were diluted to 1.0 mg/ml in buffer and formulated with 0.3 mM NAT (˜45:1 mol NAT:mol protein). Upon AAPH stress, the level of NAT degradation was largely consistent between protein-containing and protein-free solutions (˜40% loss in NAT peak area), as was the distribution of oxidant species (FIG. 11).

[2] = AAPH stress of proteins with or without NAT, site-specific Trp oxidation by LC-MS tryptic peptide mapping; type: physicochemical; conditions: Mab2 W53 and W106, Mab4 W52, Mab1 W103, Mab6 W103/104; 1 mM AAPH; NAT 0.05-1 mM
Method: Proteins Mab1, Mab2, and Mab3/Mab4 were dialyzed into a sodium acetate buffer (20 mM sodium acetate pH 5.5) and Mab5/Mab6 was dialyzed into a histidine-based buffer (20 mM histidine hydrochloride pH 5.5). Protein solutions were diluted to a final concentration of 1 mg/mL protein in the corresponding buffer and 1 mM 2,2′-Azobis(2-amidinopropane) dihydrochloride (AAPH) was added. N-acetyl-Trp (NAT) was added from a concentrated stock solution to each protein solution at concentrations from 0 to 5 mM. Samples were incubated at 40° C. for 16 hours followed by quenching with methionine and buffer exchange to the initial dialysis buffer plus 100 mM sucrose.
Site-specific modifications of AAPH-stressed samples of Mab2, Mab1, and Mab3/Mab4 were monitored using a microscale tryptic peptide digest followed by liquid chromatography-mass spectrometry (LC-MS) (Anderson, N. et al., Nov. 20, 2014, American Pharmaceutical Review). […]
Peptide mapping of each digested sample was performed on a Waters Acquity H-Class UHPLC coupled to a Thermo Q Exactive Plus high resolution mass spectrometry system (HRMS). […] Column effluent was monitored at 214 nm. […] The oxidation level at each site was determined by extracted ion chromatography (EIC) using the Thermo XCalibur biopharmaceutical characterization software. […]

CC(=O)N[C@@H](Cc1c[nH]c2ccccc12)C(=O)O [NAT, N-acetyl-tryptophan]
improvement to NAT stability by 5 mM Met (total NAT loss) ([1]; AAPH model, depending on buffer): 4-8%
% NAT degradation ± 1SD ([1]; His + 5 mM Met buffer, 0.3 mM NAT): 34.7 ± 0.1 (n = 3) %
% NAT degradation ± 1SD ([1]; His buffer pH 5.5, 0.3 mM NAT): 39.8 ± 0.2 (n = 3) %
% NAT degradation ± 1SD ([1]; Non-His + 5 mM Met buffer, 0.3 mM NAT): 32.9 ± 0.5 (n = 3) %
% NAT degradation ± 1SD ([1]; Non-His buffer pH 5.5, 0.3 mM NAT): 41.1 ± 0.7 (n = 3) %
NAT degradation (loss) ([1]; AAPH stress, under all tested conditions): 30-40% and 33-41%
loss in NAT peak area ([1]; AAPH stress, 0.3 mM NAT in histidine-based buffer, protein-free or with 1.0 mg/ml protein1 or protein2): ~40%
NAT protection from AAPH-induced oxidation of oxidation-prone tryptophan residues [2]: able to protect each tested residue from oxidation
